Where two headings read alike, the source gives them in different places.
Columns and labels:
[1] = LD50 in mice; details: mouse, in vivo
[2] = tested on: right ventricle of the heart; experiment: Guinea Pigs Electrostimulation Test (arrhythmias by electrostimulation of the right ventricle of the heart); type: in vivo; details: Cavia porcellus, 0.5 h, 30 minutes before stimulation, read-out: Percent increase in voltage required for arrhythmia; for change in vivo at 32 mg/kg: standard dose 32 mg/kg intraduodenal
Experimental: Experiment 2-Effectiveness of the compounds of Examples in the Guinea Pigs Electrostimulation Test
Arrhythmias are induced in guinea pigs by electrostimulation of the right ventricle of the heart. The animals are anaesthesized with urethane (1.2 g/kg i.p.) and artificially respirated before a needle electrode is inserted in the right ventricle of the heart. Substances are given intraduodinally 30 minutes before the stimulation at a standard dose of 32 mg/kg. In some cases a different dose was used as indicated.
The voltage needed for induction of extra systoles in control animals (n=6) is compared with that required for induction of arrhythmias in treated animals (n=6).
This method is based on the work of L. Szekeres and G. J. Papp, Naunyn-Schmiedebergs Arch. Exp. Path. Pharmak., 245, 70 (1963).
In the table the results of certain compounds of the invention are mentioned, which have been carried out according to the method described above.
The numbers of the compounds correspond with those of the Examples.

[3] = tested on: spontaneously hypertensive rats; experiment: Effectiveness in spontaneously hypertensive rats: systolic blood pressure by tail cuff method; type: in vivo; details: Rattus norvegicus, read-out: Change of systolic blood-pressures
Experimental: Experiment 1-Effectiveness of the compounds of Examples in spontaneously hypertensive rats
Systolic blood pressures were recorded by a modification of the tail cuff method described by I.M. Claxton et al., Eur. J.Pharmacology 37, 179 (1976). An oscilloscope or W+W BP recorder, model 8002, was used to display pulses.
Prior to all measurements rats were placed in a heated environment (33.5±0.5° C.) before transfer to a restraining cage. Each determination of blood pressure was the mean of at least 6 readings.
Spontaneously hypertensive rats (aged 12-18 weeks) with systolic blood pressures >170 mm Hg were considered hypertensive.
In the following table the results with certain compounds of the invention, which have been carried out with the above-described method, are mentioned. The numbers of the compounds correspond with those of the Examples.

| SMILES | change in vivo at 32 mg/kg [2] [%] | change in vivo at 10 mg/kg ([3]; 1 h) [%] | change in vivo at 10 mg/kg ([3]; 2 h) [%] | change in vivo at 10 mg/kg ([3]; 4 h) [%] | change in vivo at 10 mg/kg ([3]; 6 h) [%] | change in vivo at 10 mg/kg ([3]; 24 h) [%] | further results |
| --- | --- | --- | --- | --- | --- | --- | --- |
| CCCN1CC[C@@H](CCC(=O)c2cc(C)nc3ccccc23)[C@@H](CC)C1 [Compound 26, N-propyl-2'-methyl-hydrocinchonicine] | 24 | 0 | 3 | -5 | -7 |  | LD50 [1]: 500 mg/kg |
| CCCN1CC[C@@H](CCCc2cc(C)nc3ccccc23)[C@@H](CC)C1 [Compound 43, 2'-Methyl-N-propyl-desoxo-hydrocinchonicine.bioxalate] | 9 |  |  |  |  |  | change in vivo at 100 mg/kg ([3]; 1 h): -1%; change in vivo at 100 mg/kg ([3]; 2 h): -12%; change in vivo at 100 mg/kg ([3]; 4 h): -28%; change in vivo at 100 mg/kg ([3]; 24 h): -15% |
| CCCN1CC[C@@H](CC(=O)Cc2cc(OC)nc3ccccc23)[C@@H](CC)C1 [Compound 63, 1-(2-Methoxy-4-quinolyl)-3-[3(R)-ethyl-N-propyl-4(S)-piperidyl]-propanone-2.bioxalate] |  | -1 | 1 | -4 | -3 | -6 | change in vivo at 4 mg/kg ([2]; at 4 mg/kg, intraduodenal): 12% |
| CCCc1cc(C(=O)CC[C@@H]2CCN(CCCC(=O)c3ccccc3)C[C@@H]2CC)c2ccccc2n1 [Compound 32, N-(3-benzoylpropyl)-2'-propyl-hydrocinchonicine] | 52 | -4 | -11 | -8 | -22 | -3 |  |
| CC[C@H]1CN(CCCC(=O)c2ccc(F)cc2)CC[C@H]1CCC(O)c1cc(C)nc2ccccc12 (some centres unmarked) [Compound 39, N-[3-(4-fluorobenzoyl)propyl]-2'-methyl-hydrocinchonicinol-1] | 5 |  |  |  |  |  | change in vivo at 1 mg/kg ([3]; 1 h): -16%; change in vivo at 1 mg/kg ([3]; 2 h): -24%; change in vivo at 1 mg/kg ([3]; 4 h): -26%; change in vivo at 1 mg/kg ([3]; 6 h): -23%; change in vivo at 1 mg/kg ([3]; 24 h): -1% |
| CCCN1CC[C@@H](CCC(=O)c2cc(C)nc3ccc(OC)cc23)[C@@H](CC)C1 [Compound 29] |  |  |  |  |  |  | change in vivo at 16 mg/kg ([2]; intraduodenal): 9%; change in vivo at 100 mg/kg ([3]; 1 h): -10%; change in vivo at 100 mg/kg ([3]; 2 h): -27%; change in vivo at 100 mg/kg ([3]; 4 h): -18%; change in vivo at 100 mg/kg ([3]; 6 h): -22%; change in vivo at 100 mg/kg ([3]; 24 h): 0% |
| CCCN1CC[C@@H](CCC(O)c2cc(C)nc3ccccc23)[C@@H](CC)C1 (some centres unmarked) [Compound 38, N-propyl-2'-methyl-hydrocinchonicinol-1] |  | 1 | 0 | -3 | -4 | 0 | change in vivo at 16 mg/kg ([2]; intraduodenal): 31% |

— patent US4442106A, “Quinoline derivatives, pharmaceutical compositions containing such compounds, and methods of treating cardiovascular conditions with them” (ACF Chemiefarma N.V., priority 1980, dated 1984)
